From patent US20240239799A1, “(S)-1-(5-((PYRIDIN-3-YL)THIO)PYRAZIN-2-YL)-4'H,6'H-SPIRO[PIPERIDINE-4,5'-PYRROLO [1,2-B]PYRAZOL]-4'-AMINE DERIVATIVES AND SIMILAR COMPOUNDS AS SHP2 INHIBITORS FOR THE TREATMENT OF E.G. CANCER” (C.N.C.C.S. S.C.A.R.L. COLLEZIONE NAZIONALE DEI COMPOSTI …, priority 2021, published 2024)
pIC50: −log10 of the molar value.

Assays:
[1] = target: T1, SHP-2 enzyme (Met1-Leu525) (Homo sapiens, UniProt Q06124); assay: SHP2 inhibition enzymatic assay (DiFMUP substrate, IRS1 peptide activation); assay type: biochemical; settings: 0.5 nM SHP-2, 500 nM IRS1 peptide, 75 μM DiFMUP; read-out: SHP2wt - IC50
T1 construct: synthetized by Origene, Met1-Leu525, cat #TP750155; purchased Origene TP750155
T1 sequence (Q06124 1-525): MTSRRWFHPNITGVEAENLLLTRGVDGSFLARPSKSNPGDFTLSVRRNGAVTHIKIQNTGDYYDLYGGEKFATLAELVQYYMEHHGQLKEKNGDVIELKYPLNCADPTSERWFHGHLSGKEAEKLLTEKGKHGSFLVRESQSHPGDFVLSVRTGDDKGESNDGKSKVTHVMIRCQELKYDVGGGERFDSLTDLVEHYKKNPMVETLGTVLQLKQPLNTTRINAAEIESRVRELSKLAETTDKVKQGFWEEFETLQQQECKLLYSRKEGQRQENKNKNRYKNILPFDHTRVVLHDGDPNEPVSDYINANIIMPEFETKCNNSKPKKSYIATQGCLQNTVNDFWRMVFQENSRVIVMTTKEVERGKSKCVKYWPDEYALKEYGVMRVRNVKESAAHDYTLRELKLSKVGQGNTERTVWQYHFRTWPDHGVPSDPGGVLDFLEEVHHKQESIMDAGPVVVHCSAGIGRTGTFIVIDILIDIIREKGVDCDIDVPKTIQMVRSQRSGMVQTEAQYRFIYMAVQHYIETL

[2] = tested on: phospho-ERK1/2 (Thr202/Tyr204) in KYSE-520 cells; assay: Phospho-ERK cellular assay (TR-FRET); assay type: cell-based; settings: Homo sapiens, KYSE-520, 2 h, KYSE-520 cells, 2 h at 37° C.; read-out: pERK IC50
In short: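 KYSE-520 cells plated overnight, then exposed to compound for 2 h at 37° C and lysed. Phospho-ERK1/2 (Thr202/Tyr204) detected by TR-FRET with Eu-cryptate and D2 antibodies after overnight incubation at rt. IC50 from four-parameter fit, normalised to DMSO (0%) and no-cell (100%) controls.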

[3] = target: T2, SHP2 (Avi-G4SG4S-PTPN11(1-525)) (Homo sapiens, UniProt Q06124); assay: Binding kinetic assay by surface plasmon resonance (SPR); settings: Biacore T200, single cycle kinetic, 1:1 Langmuir binding model; for koff: triplicate
T2 construct: (Avi-G4SG4S-PTPN11(1-525)); purchased Viva Biotech Ltd
T2 sequence (Q06124 1-525): T1 sequence (Q06124 1-525)
Procedure: A binding assay for measuring SHP2 inhibitors binding kinetic was developed using a Biacore T200 Instrument (Cytiva, Sweden). […] Data analysis was performed by Biacore T200 Evaluation software (Cytiva), and kinetic parameters were evaluated by a global fitting according to a 1:1 Langmuir binding model. Each molecule was tested in triplicate on separate flow channels.

| pIC50 [1] | pIC50 [2] | Residence time 1/koff SPR [3] [s] | koff [3] [s⁻¹] | Compound |
| --- | --- | --- | --- | --- |
| ≥ 7.30 | > 7.00 | 30303 | 3.3e-05 | Nc1nccc(Sc2cnc(N3CCC4(CC3)Cn3nc5c(c3[C@H]4N)COC5)cn2)c1Cl [Example 27, (S)-1′-(5-((2-amino-3-chloropyridin-4-yl)thio)pyrazin-2-yl)-1,8-dihydro-3H,6H-spiro[furo[3,4-d]pyrrolo[1,2-b]pyrazole-7,4′-piperidin]-8-amine] |
| ≥ 7.30 | > 7.00 | 1062 | 0.000942 | Nc1nccc(Sc2cnc(N3CCC4(CC3)Cn3nncc3[C@H]4N)cn2)c1Cl [Example 38, (S)-1-(5-((2-amino-3-chloropyridin-4-yl)thio)pyrazin-2-yl)-4′H,6′H-spiro[piperidine-4,5′-pyrrolo[1,2-c][1,2,3]triazol]-4′-amine] |

The remaining lines, values behind:

| Compound | pIC50 [1] | pIC50 [2] | Residence time 1/koff SPR [3] [s] | koff [3] [s⁻¹] |
| --- | --- | --- | --- | --- |
| Nc1nccc(Sc2cnc(N3CCC4(CC3)Cn3nc5c(c3[C@H]4N)CCC5)c3cncn23)c1Cl [Example 21, (S)-1′-(5-((2-amino-3-chloropyridin-4-yl)thio)imidazo[1,5-a]pyrazin-8-yl)-1,2,3,8-tetrahydro-6H-spiro[cyclopenta[d]pyrrolo[1,2-b]pyrazole-7,4′-piperidin]-8-amine] | ≥ 7.30 | > 7.00 | 12903 | 7.75e-05 |
| Cc1cc2n(n1)CC1(CCN(c3ncc(Sc4ccnc(N)c4Cl)n4cncc34)CC1)[C@@H]2N [Example 23, (S)-1-(5-((2-amino-3-chloropyridin-4-yl)thio)imidazo[1,5-a]pyrazin-8-yl)-2′-methyl-4′H,6′H-spiro[piperidine-4,5′-pyrrolo[1,2-b]pyrazol]-4′-amine] | ≥ 7.30 | > 7.00 | 6536 | 0.000153 |
| Nc1nccc(Sc2cnc(N3CCC4(CC3)Cn3nc5c(c3[C@H]4N)COC5)c3cncn23)c1Cl [Example 29, (S)-1′-(5-((2-amino-3-chloropyridin-4-yl)thio)imidazo[1,5-a]pyrazin-8-yl)-1,8-dihydro-3H,6H-spiro[furo[3,4-d]pyrrolo[1,2-b]pyrazole-7,4′-piperidin]-8-amine] | ≥ 7.30 | < 6.30 | 1715 | 0.000583 |
| N[C@@H]1c2ccnn2CC12CCN(c1cnc(Sc3ccn4ccnc4c3Cl)cn1)CC2 [Example 31, (S)-1-(5-((8-chloroimidazo[1,2-a]pyridin-7-yl)thio)pyrazin-2-yl)-4′H,6′H-spiro[piperidine-4,5′-pyrrolo[1,2-b]pyrazol]-4′-amine] | ≥ 7.30 | > 7.00 | 12674 | 7.89e-05 |
| N[C@@H]1c2c(F)cnn2CC12CCN(c1cnc(Sc3ccn4ccnc4c3Cl)cn1)CC2 [Example 49, (S)-1-(5-((8-chloroimidazo[1,2-a]pyridin-7-yl)thio)pyrazin-2-yl)-3′-fluoro-4′H,6′H-spiro[piperidine-4,5′-pyrrolo[1,2-b]pyrazol]-4′-amine] | ≥ 7.30 | > 7.00 | 14493 | 6.9e-05 |
